These results are taken from patent US10273221B2, “Microbiocidal heterobicyclic derivatives” (Syngenta Participations AG, priority 2015, dated 2019).

In data set [1] the test system is Mycosphaerella graminicola (Septoria tritici). Briefly: Mycosphaerella graminicola (Septoria tritici) / liquid culture (Septoria blotch). In kind it is cell-based. The note with it: Zymoseptoria tritici, 96 h, growth inhibition determined photometrically 4-5 days after application, vs untreated control, read-out: disease control.
Data set [2] concerns Monographella nivalis (Microdochium nivale). The experiment in a line: Monographella nivalis (Microdochium nivale) / liquid culture (foot rot cereals). The class given is cell-based. The note with it: 96 h, growth inhibition determined photometrically 4-5 days after application, vs untreated control, read-out: disease control.
The subject of data set [3] is Botryotinia fuckeliana (Botrytis cinerea). Briefly: Botryotinia fuckeliana (Botrytis cinerea) / liquid culture (gray mould). The class given is cell-based. The note with it: growth inhibition determined photometrically 3-4 days after application, vs untreated control, read-out: disease control.
Another data set relates to Fusarium culmorum. The experiment in a line: microbe, parasite or virus in culture. In kind it is cell-based. The note with it: 72 h, read-out: disease control.
Data set [4] relates to Magnaporthe grisea (Pyricularia oryzae). Briefly: microbe, parasite or virus in culture. The class given is cell-based. The note with it: 72 h, read-out: control of Magnaporthe grisea.
The test system of data set [5] is Glomerella lagenarium (Colletotrichum lagenarium). The experiment in a line: Glomerella lagenarium (Colletotrichum lagenarium) / liquid culture (anthracnose). The note with it: Colletotrichum orbiculare, growth inhibition measured photometrically 3-4 days after application, vs untreated control, read-out: disease control. The class given is cell-based.
The next data set has as its system Sclerotinia sclerotiorum. Briefly: Sclerotinia sclerotiorum / liquid culture (cottony rot). The note with it: 72 h, read-out: control of Sclerotinia sclerotiorum.
The subject of a further data set is Pyrenophora teres. Briefly: Pyrenophora teres / liquid culture (net blotch). The class given is cell-based. The note with it: growth inhibition determined photometrically 3-4 days after application, vs untreated control.
Another data set has as its system Gaeumannomyces graminis. The experiment in a line: Gaeumannomyces graminis / liquid culture (take-all of cereals). In kind it is cell-based. The note with it: growth inhibition determined photometrically 4-5 days after application, vs untreated control, read-out: disease control.

Structures are written as SMILES.

Protocol for Sclerotinia sclerotiorum: Sclerotinia sclerotiorum/Liquid Culture (Cottony Rot)
Mycelia fragments of a newly grown liquid culture of the fungus are directly mixed into nutrient broth (Vogels broth). After placing a (DMSO) solution of test compound into a microtiter plate (96-well format) the nutrient broth containing the fungal material is added. The test plates are incubated at 24° C. and the inhibition of growth is determined photometrically 3-4 days after application.

The term melting point denotes the temperature of the solid-liquid transition. `Cc1cccc2c1ncn2C1=NC(C)(C)C(=O)c2cc(Cl)ccc21` [E-34] had a melting point of 129 to 133 °C. Besides, the inhibition of growth at 200 ppm in data set [1] is no less than 80%. In data set [2], the inhibition of growth at 200 ppm was no less than 80%. Further, in data set [3], the inhibition of growth at 200 ppm is no less than 80%. Further, the inhibition of growth at 200 ppm in the data set on Fusarium culmorum was no less than 80%. The inhibition of growth at 20 ppm in data set [4] is no less than 80%.

In the case of `Cc1cccc2c1ncn2C1=NCC2(CCCC2)c2ccccc21` [E-53], the inhibition of growth at 200 ppm in [1], in data set [2] and in data set [3] was no less than 80% in each case. Moreover, the inhibition of growth at 20 ppm in data set [4] is no less than 80%.

In the case of `Cc1cccc2c1ncn2C1=NCC2(CCC2)c2ccccc21` [E-54], the inhibition of growth at 200 ppm in data set [1], in data set [2], in data set [3] and in data set [5] was no less than 80% throughout. Besides, the inhibition of growth at 20 ppm in data set [4] is no less than 80%.

`Cc1ccc2c(ncn2C2=NC(C)(C)C(=O)c3cc(Cl)ccc32)c1C` [E-36] came in with a melting point of 196 to 199 °C. Further, the inhibition of growth at 200 ppm in data set [1] is no less than 80%. In [3], the inhibition of growth at 200 ppm was no less than 80%. Further, the inhibition of growth at 200 ppm with Fusarium culmorum is no less than 80%. In [4], the inhibition of growth at 20 ppm is no less than 80%.

As to `Cc1cccc2c1C(F)(F)C(C)(C)N=C2n1cnc2c(C)c(C)ccc21` [E-22], the inhibition of growth at 200 ppm (in [1]; in [2]; in data set [3]; in the data set with Fusarium culmorum; in [5]) was no less than 80% in each case. Further, the inhibition of growth at 20 ppm (with Sclerotinia sclerotiorum; in the data set with Pyrenophora teres; in data set [4]) was no less than 80% in each case.

On to `Cc1cccc2c1C(F)(F)C(C)(C)N=C2n1cnc2c(C)cccc21` [E-21], for which the inhibition of growth at 200 ppm (in [1]; in data set [2]; in [3]; in the data set on Gaeumannomyces graminis; with Fusarium culmorum; in data set [5]) was no less than 80% throughout. The inhibition of growth at 20 ppm (with Sclerotinia sclerotiorum; with Pyrenophora teres; in [4]) was no less than 80% in each case.

Compound `CC1(C)N=C(n2cnc3c(F)c(F)ccc32)c2cccc(F)c2C1(C)C` [E-50] gave a melting point of 112 to 114 °C. In addition, the inhibition of growth at 200 ppm in [1] was no less than 80%. For the same compound, in data set [2], the inhibition of growth at 200 ppm was no less than 80%. Moreover, the inhibition of growth at 200 ppm in data set [3] is no less than 80%. Also, the inhibition of growth at 200 ppm with Fusarium culmorum is no less than 80%. In addition, the inhibition of growth at 200 ppm in data set [5] was no less than 80%. Moreover, in [4], the inhibition of growth at 20 ppm is no less than 80%.

As to `Cc1c(Cl)ccc2c1ncn2C1=NC(C)(C)C(F)(F)c2ccccc21` [E-33], the inhibition of growth at 200 ppm (in data set [1]; in [2]; in data set [3]; in the data set on Gaeumannomyces graminis; in the data set on Fusarium culmorum; in [5]) was no less than 80% throughout. Moreover, the inhibition of growth at 20 ppm (in the data set on Sclerotinia sclerotiorum; in data set [4]) was no less than 80% each time.

`Cc1c(F)ccc2c1ncn2C1=NC(C)(C)C(=O)c2cc(Cl)ccc21` [E-35] returned a melting point of 133 to 136 °C. Moreover, the inhibition of growth at 200 ppm in [1] was no less than 80%. The inhibition of growth at 200 ppm in data set [3] is no less than 80%. Also, in the data set on Fusarium culmorum, the inhibition of growth at 200 ppm was no less than 80%. The inhibition of growth at 20 ppm in [4] is no less than 80%.

As for `Cc1ccc2c(ncn2C2=NC(C)(C)C(C)(C)c3c(F)cccc32)c1C` [E-18], the inhibition of growth at 200 ppm (in [1]; in data set [2]; in [3]; with Gaeumannomyces graminis; in the data set on Fusarium culmorum; in [5]) was no less than 80% in each case. Moreover, the inhibition of growth at 20 ppm (with Sclerotinia sclerotiorum; in the data set on Pyrenophora teres; in [4]) was no less than 80% each time.

`Cc1ccc2c(ncn2C2=NC(C)(C)Cc3cc(F)ccc32)c1C` [E-57] gave a melting point of 143 to 145 °C. For the same compound, the inhibition of growth at 200 ppm in [1] was no less than 80%. The inhibition of growth at 200 ppm in [2] is no less than 80%. Also, the inhibition of growth at 200 ppm in data set [3] is no less than 80%. The inhibition of growth at 20 ppm with Sclerotinia sclerotiorum is no less than 80%. Further, the inhibition of growth at 200 ppm with Fusarium culmorum was no less than 80%. Further, in data set [5], the inhibition of growth at 200 ppm was no less than 80%. Also, the inhibition of growth at 20 ppm in data set [4] is no less than 80%.

Regarding `Cc1c(F)ccc2c1ncn2C1=NC(C)(C)C(F)(F)c2ccccc21` [E-32], the melting point is 118 to 121 °C. Also, in data set [1], the inhibition of growth at 200 ppm was no less than 80%. For the same compound, the inhibition of growth at 200 ppm in data set [2] was no less than 80%. Also, the inhibition of growth at 200 ppm in data set [3] is no less than 80%. Besides, the inhibition of growth at 200 ppm in the data set on Gaeumannomyces graminis was no less than 80%. Besides, in the data set on Sclerotinia sclerotiorum, the inhibition of growth at 20 ppm is no less than 80%. Also, in the data set on Fusarium culmorum, the inhibition of growth at 200 ppm was no less than 80%. The inhibition of growth at 200 ppm in data set [5] is no less than 80%. The inhibition of growth at 20 ppm in [4] was no less than 80%.

For the compound `Cc1cccc2c1ncn2C1=NC(C)(C)C(C)(C)c2c(F)cccc21` [E-1], the melting point is 45 to 46 °C. The inhibition of growth at 200 ppm in data set [1] was no less than 80%. Also, the inhibition of growth at 200 ppm in data set [2] is no less than 80%. The inhibition of growth at 200 ppm in [3] is no less than 80%. In the data set on Gaeumannomyces graminis, the inhibition of growth at 200 ppm was no less than 80%. Besides, the inhibition of growth at 20 ppm in the data set with Sclerotinia sclerotiorum is no less than 80%. Also, in the data set on Fusarium culmorum, the inhibition of growth at 200 ppm was no less than 80%. The inhibition of growth at 200 ppm in [5] was no less than 80%. Moreover, the inhibition of growth at 20 ppm with Pyrenophora teres was no less than 80%. Besides, the inhibition of growth at 20 ppm in [4] was no less than 80%.

For the compound `CC1(C)N=C(n2cnc3c4c(ccc32)CCC4)c2ccccc2C1(F)F` [E-55], the inhibition of growth at 200 ppm (in data set [1]; in [2]; in [3]; in the data set with Fusarium culmorum; in [5]) was no less than 80% each time. For the same compound, the inhibition of growth at 20 ppm (in the data set with Sclerotinia sclerotiorum; in [4]) was no less than 80% throughout.

With `Cc1cc2ncn(C3=NC(C)(C)C(C)(C)c4c(F)cccc43)c2cc1C` [E-30], the inhibition of growth at 200 ppm (in data set [1]; in data set [2]; in data set [3]; in the data set with Gaeumannomyces graminis; in the data set on Fusarium culmorum; in [5]) was no less than 80% in each case. The inhibition of growth at 20 ppm (with Sclerotinia sclerotiorum; in data set [4]) was no less than 80% each time.

On to `Cc1ccc2c(ncn2C2=NC(C)(C)C(F)(F)c3cc(F)ccc32)c1C` [E-56], for which the inhibition of growth at 200 ppm (in [1]; in data set [2]; in data set [3]; in the data set with Fusarium culmorum; in data set [5]) was no less than 80% in each case. For the same compound, the inhibition of growth at 20 ppm (in the data set with Sclerotinia sclerotiorum; in data set [4]) was no less than 80% each time.

Take `CC1(C)N=C(n2cnc3c(Cl)cccc32)c2cccc(F)c2C1(C)C` [E-17]: the melting point fell in the range of 50 to 51 °C. For the same compound, the inhibition of growth at 200 ppm in [2] was no less than 80%. Moreover, the inhibition of growth at 200 ppm in data set [3] was no less than 80%. For the same compound, the inhibition of growth at 200 ppm in the data set with Gaeumannomyces graminis was no less than 80%. Also, the inhibition of growth at 20 ppm in the data set with Sclerotinia sclerotiorum was no less than 80%. The inhibition of growth at 200 ppm with Fusarium culmorum was no less than 80%. The inhibition of growth at 200 ppm in [5] was no less than 80%. The inhibition of growth at 20 ppm with Pyrenophora teres is no less than 80%. Moreover, the inhibition of growth at 20 ppm in data set [4] was no less than 80%.

Turning to `Cc1ccc2c(ncn2C2=NC(C)(C)C(F)(F)c3c(F)cccc32)c1C` [E-19], the inhibition of growth at 200 ppm (in [2]; in [3]; with Gaeumannomyces graminis; with Fusarium culmorum; in [5]) was no less than 80% each time. Besides, the inhibition of growth at 20 ppm (in the data set with Sclerotinia sclerotiorum; in the data set with Pyrenophora teres; in [4]) was no less than 80% in each case.

For `Cc1ccc2c(ncn2C2=NC(C)(C)C(C)(C)c3c(F)cccc32)c1F` [E-60], the inhibition of growth at 200 ppm (in data set [1]; in [2]; in data set [3]; in the data set with Gaeumannomyces graminis; with Fusarium culmorum; in data set [5]) was no less than 80% in each case. Also, the inhibition of growth at 20 ppm in data set [4] was no less than 80%.

`CCc1cccc2c1ncn2C1=NC(C)(C)C(C)(C)c2c(F)cccc21` [E-14] yielded a melting point of 87 to 88 °C. Also, the inhibition of growth at 200 ppm in data set [2] is no less than 80%. Also, the inhibition of growth at 200 ppm in data set [3] is no less than 80%. In the data set with Gaeumannomyces graminis, the inhibition of growth at 200 ppm is no less than 80%. In addition, the inhibition of growth at 200 ppm in the data set with Fusarium culmorum is no less than 80%. Besides, the inhibition of growth at 200 ppm in data set [5] is no less than 80%. In the data set on Pyrenophora teres, this compound yielded an inhibition of growth at 20 ppm of no less than 80%. Also, the inhibition of growth at 20 ppm in data set [4] is no less than 80%.

In turn, `CC1(C)N=C(n2cnc3c(Br)cccc32)c2cccc(F)c2C1(C)C` [E-4] showed a melting point of 48 to 49 °C. Besides, in [2], the inhibition of growth at 200 ppm was no less than 80%. In [3], the inhibition of growth at 200 ppm was no less than 80%. In the data set with Gaeumannomyces graminis, the inhibition of growth at 200 ppm was no less than 80%. Moreover, the inhibition of growth at 200 ppm in the data set on Fusarium culmorum is no less than 80%. For the same compound, the inhibition of growth at 200 ppm in data set [5] is no less than 80%. The same compound showed an inhibition of growth at 20 ppm in the data set on Pyrenophora teres of no less than 80%. In addition, in [4], the inhibition of growth at 20 ppm was no less than 80%.
